Reference: patent US9409892B2, “4-hydroxy-isoquinoline compounds as HIF hydroxylase inhibitors” (FIBROGEN, INC., priority 2012, dated 2016)

Key:
PHD1 (EGLN2) = PHD1 (EGLN2) (Homo sapiens (Human), UniProt Q96KS0); assay: HIF-PH assay (14CO2 capture), PHD1 enzyme inhibition; type: biochemical; conditions: for IC50: individual measurement, read-out: IC50 (μM) PHD1
Description: (§1) Ketoglutaric acid α-[1-^14C]-sodium salt, alpha-ketoglutaric acid sodium salt, and HPLC purified peptide may be obtained from commercial sources, e.g., Perkin-Elmer (Wellesley Mass.), Sigma-Aldrich, and SynPep Corp. (Dublin Calif.), respectively. Peptides for use in the assay may be fragments of HIFα as described above or as disclosed in International Publication WO 2005/118836, incorporated by reference herein. HIF-pH, e.g., PHD1 (EGLN2) or PHD2 (EGLN1), can be expressed in, e.g., insect Hi5 cells, and partially purified, e.g., through a SP ion exchange chromatography column. Enzyme activity is determined by capturing ^14CO2 using an assay described by Kivirikko and Myllyla (1982, Methods Enzymol. 82:245-304). Assay reactions contain 50 mM HEPES (pH 7.4), 100 μM α-ketoglutaric acid sodium salt, 0.30 mCi/mL ketoglutaric acid α-[1-^14C]-sodium salt, 40 μM FeSO4, 1 mM ascorbate, 1541.8 units/mL Catalase, with or without 50 μM peptide substrate and various concentrations of compound of the invention. Reactions are initiated by addition of HIF-PH enzyme.
(§2) The peptide-dependent percent turnover is calculated by subtracting percent turnover in the absence of peptide from percent turnover in the presence of substrate peptide. Percent inhibition and IC50 are calculated using peptide-dependent percent turnover at given inhibitor concentrations. Calculation of IC50 values for each inhibitor is conducted using GraFit software (Erithacus Software Ltd., Surrey UK).
(§3) The PHD2/PHD1 is the ratio of the IC50 of the compound for each enzyme.

PHD2 (EGLN1) = PHD2 (EGLN1) (Homo sapiens (Human), UniProt Q9GZT9); assay: HIF-PH assay (14CO2 capture), PHD2 enzyme inhibition; type: biochemical; conditions: Table 1; individual measurement; read-out: IC50 (μM) PHD2
Description: as §1, §2, §3

[1] = Table 1, ratio of the IC50 of the compound for each enzyme
[2] = Table 2 comparative data, IC50 PHD2/IC50 PHD1

Sequence of PHD2 (EGLN1) (Q9GZT9 whole entry): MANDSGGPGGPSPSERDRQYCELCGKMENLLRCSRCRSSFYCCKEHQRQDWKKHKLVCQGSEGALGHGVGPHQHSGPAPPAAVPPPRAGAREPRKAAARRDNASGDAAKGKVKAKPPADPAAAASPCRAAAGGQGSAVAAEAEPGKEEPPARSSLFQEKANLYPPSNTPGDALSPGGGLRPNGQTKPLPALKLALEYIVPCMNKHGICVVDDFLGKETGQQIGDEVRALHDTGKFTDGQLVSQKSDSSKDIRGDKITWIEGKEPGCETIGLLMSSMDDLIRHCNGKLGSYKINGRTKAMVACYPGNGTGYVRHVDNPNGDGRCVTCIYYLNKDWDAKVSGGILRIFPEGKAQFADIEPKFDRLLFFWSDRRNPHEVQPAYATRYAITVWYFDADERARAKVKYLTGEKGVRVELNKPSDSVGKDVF
Sequence of PHD1 (EGLN2) (Q96KS0 whole entry, the tested form may be a part): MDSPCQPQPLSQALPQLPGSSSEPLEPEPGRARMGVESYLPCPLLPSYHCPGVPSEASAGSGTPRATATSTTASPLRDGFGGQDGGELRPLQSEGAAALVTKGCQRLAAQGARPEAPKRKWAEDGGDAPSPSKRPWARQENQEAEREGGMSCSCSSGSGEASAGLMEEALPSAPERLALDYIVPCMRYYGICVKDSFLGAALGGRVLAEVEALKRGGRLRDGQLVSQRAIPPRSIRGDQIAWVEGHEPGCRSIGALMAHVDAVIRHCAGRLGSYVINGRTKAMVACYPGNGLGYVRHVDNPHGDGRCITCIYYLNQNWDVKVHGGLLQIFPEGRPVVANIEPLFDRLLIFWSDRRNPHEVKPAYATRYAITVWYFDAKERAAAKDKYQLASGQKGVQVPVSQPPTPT

| Compound | IC50 (PHD1 (EGLN2); Table 1) | PHD2/PHD1 (PHD1 (EGLN2); [1]) | IC50 (PHD2 (EGLN1)) | PHD2/PHD1 (PHD1 (EGLN2); [2]) |
| --- | --- | --- | --- | --- |
| O=C(O)CCNC(=O)c1ncc2cc(Oc3ccccc3)ccc2c1O [Compound 1, 3-[(4-Hydroxy-7-phenoxy-isoquinoline-3-carbonyl)-amino]propionic acid] | 0.92 µM | 11 | 10.3 µM | 11 |
| CC(C)(CNC(=O)c1ncc2cc(Oc3ccccc3)ccc2c1O)C(=O)O [Compound 2, 3-[(4-Hydroxy-7-phenoxy-isoquinoline-3-carbonyl)-amino]-2,2-dimethyl-propionic acid] | 5.5 µM | 8 | 46.7 µM |  |
| O=C(NC[C@H](O)C(=O)O)c1ncc2cc(Oc3ccccc3)ccc2c1O [Compound 3, 2-(S)-Hydroxy-3-[(4-hydroxy-7-phenoxy-isoquinoline-3-carbonyl)-amino]propionic acid] | 1.08 µM | 14 | 15.6 µM | 14 |
| O=C(O)CCCNC(=O)c1ncc2cc(Oc3ccccc3)ccc2c1O [Compound 4, 4-[(4-Hydroxy-7-phenoxy-isoquinoline-3-carbonyl)-amino]-butyric acid] | 1.17 µM | 6 | 7 µM |  |
| O=C(O)CCCCNC(=O)c1ncc2cc(Oc3ccccc3)ccc2c1O [Compound 5, 5-[(4-Hydroxy-7-phenoxy-isoquinoline-3-carbonyl)-amino]-pentanoic acid] | 2.75 µM | 22 | 61.7 µM |  |
| CC(C)(CC(=O)O)NC(=O)c1ncc2cc(Oc3ccccc3)ccc2c1O [Compound 6, 3-[(4-Hydroxy-7-phenoxy-isoquinoline-3-carbonyl)-amino]-3-methyl-butyric acid] | 8.19 µM | 23 | 192 µM | 23 |
| O=C(NCC[C@H](O)C(=O)O)c1ncc2cc(Oc3ccccc3)ccc2c1O [Compound 7, 2-(S)-Hydroxy-4-[(4-hydroxy-7-phenoxy-isoquinoline-3-carbonyl)-amino]-butyric acid] | 3.02 µM | 17 | 52.7 µM |  |
| CC(C)(CCNC(=O)c1ncc2cc(Oc3ccccc3)ccc2c1O)C(=O)O [Compound 8, 4-[(4-Hydroxy-7-phenoxy-isoquinoline-3-carbonyl)-amino]-2,2-dimethyl-butyric acid] | 11.6 µM | 10 | 119 µM |  |
| N[C@@H](CNC(=O)c1ncc2cc(Oc3ccccc3)ccc2c1O)C(=O)O [Compound 9, 2-(S)-Amino-3-[(4-hydroxy-7-phenoxy-isoquinoline-3-carbonyl)-amino]-propionic acid] | 33.9 µM | 6 | > 200 µM |  |
| O=C(NCC1(C(=O)O)CCC1)c1ncc2cc(Oc3ccccc3)ccc2c1O [Compound 13, 1-{[(4-Hydroxy-7-phenoxy-isoquinoline-3-carbonyl)-amino]-methyl}-cyclobutanecarboxylic acid] | 5.51 µM | 7 | 40.8 µM |  |
| O=C(NCC1(C(=O)O)CCOCC1)c1ncc2cc(Oc3ccccc3)ccc2c1O [Compound 15, 4-{[(4-Hydroxy-7-phenoxy-isoquinoline-3-carbonyl)-amino]-methyl}-tetrahydro-pyran-4-carboxylic acid] | 9.71 µM | 5 | 51.5 µM |  |
| O=C(O)CNC(=O)c1ncc2cc(Oc3cccnc3)ccc2c1O [U.S. Pat. No. 7,323,475; Example D-67, 2-{[4-Hydroxy-7-(pyridin-3-yloxy)-isoquinoline-3-carbonyl]-amino}-acetic acid, reference compound] |  |  |  | 3 |

Now from value to compound:

| IC50 (PHD1 (EGLN2); Table 1) | PHD2/PHD1 (PHD1 (EGLN2); [1]) | IC50 (PHD2 (EGLN1)) | PHD2/PHD1 (PHD1 (EGLN2); [2]) | Compound |
| --- | --- | --- | --- | --- |
| 27.9 µM | 6 | 182 µM |  | N#Cc1nc(C(=O)N[C@H]2CCCC[C@H]2C(=O)O)c(O)c2ccc(Oc3ccccc3)cc12 (relative stereo) [Compound 32, cis-2-(1-Cyano-4-hydroxy-7-phenoxyisoquinoline-3-carboxamido)cyclohexanecarboxylic acid] |
| 16.9 µM | 6 | 94.8 µM |  | N#Cc1nc(C(=O)N[C@H]2CCC[C@H]2C(=O)O)c(O)c2ccc(Oc3ccccc3)cc12 (relative stereo) [Compound 33, cis-2-[(1-Cyano-4-hydroxy-7-phenoxy-isoquinoline-3-carbonyl)-amino]-cyclopentanecarboxylic acid] |
| 0.24 µM | 5 | 1.33 µM | 5 | N#Cc1nc(C(=O)NCCC(=O)O)c(O)c2ccc(Oc3ccccc3)cc12 [Compound 10, 3-[(1-Cyano-4-hydroxy-7-phenoxy-isoquinoline-3-carbonyl)-amino]-propionic acid] |
| 1.37 µM | 41 | 56.6 µM | 41 | CC(CC(=O)O)NC(=O)c1nc(C#N)c2cc(Oc3ccccc3)ccc2c1O (centres unmarked) [Compound 11, 3-[(1-Cyano-4-hydroxy-7-phenoxy-isoquinoline-3-carbonyl)-amino]butyric acid] |
| 0.17 µM | 9 | 1.62 µM |  | N#Cc1nc(C(=O)NCC2(C(=O)O)CC2)c(O)c2ccc(Oc3ccccc3)cc12 [Compound 12, 1-{[(1-Cyano-4-hydroxy-7-phenoxy-isoquinoline-3-carbonyl)-amino]-methyl}-cyclopropanecarboxylic acid] |
| 0.31 µM | 11 | 3.52 µM |  | N#Cc1nc(C(=O)NCC2(C(=O)O)CCC2)c(O)c2ccc(Oc3ccccc3)cc12 [Compound 14, 1-{[(1-Cyano-4-hydroxy-7-phenoxy-isoquinoline-3-carbonyl)-amino]-methyl}-cyclobutanecarboxylic acid] |
| 1.89 µM | 13 | 24.3 µM |  | N#Cc1nc(C(=O)NCC2(C(=O)O)CCOCC2)c(O)c2ccc(Oc3ccccc3)cc12 [Compound 16, 4-{[(1-Cyano-4-hydroxy-7-phenoxy-isoquinoline-3-carbonyl)-amino]-methyl}-tetrahydro-pyran-4-carboxylic acid] |
| 3.43 µM |  |  |  | N#Cc1nc(C(=O)N[C@H](CC(=O)O)Cc2ccccc2)c(O)c2ccc(Oc3ccccc3)cc12 [Compound 67, (S)-3-[(1-Cyano-4-hydroxy-7-phenoxy-isoquinoline-3-carbonyl)-amino]-4-phenyl-butyric acid] |
| 2.27 µM |  |  |  | N#Cc1nc(C(=O)N[C@@H](CC(=O)O)Cc2ccccc2)c(O)c2ccc(Oc3ccccc3)cc12 [Compound 68, (R)-3-[(1-Cyano-4-hydroxy-7-phenoxy-isoquinoline-3-carbonyl)-amino]-4-phenyl-butyric acid] |
|  | 23 |  |  | CC(C)(CC(=O)O)NC(=O)c1nc(C#N)c2cc(Oc3ccccc3)ccc2c1O [Compound 82, 3-[(1-Cyano-4-hydroxy-7-phenoxy-isoquinoline-3-carbonyl)-amino]-3-methyl-butyric acid] |
|  |  |  | 1.5 | O=C(O)CNC(=O)c1ncc2cc(Oc3ccccc3)ccc2c1O [U.S. Pat. No. 7,323,475; Example D-7, 2-[(4-Hydroxy-7-phenoxy-isoquinoline-3-carbonyl)-amino]-acetic acid, reference compound] |
|  |  |  | 0.4 | N#Cc1nc(C(=O)NCC(=O)O)c(O)c2ccc(Oc3ccccc3)cc12 [U.S. Pat. No. 7,928,120; Example 3, 2-[(1-Cyano-4-hydroxy-7-phenoxy-isoquinoline-3-carbonyl)-amino]-acetic acid, reference compound] |
